Test results: ChEMBL document CHEMBL5154682, “TDP-43 Modulation by Tau-Tubulin Kinase 1 Inhibitors: A New Avenue for Future Amyotrophic Lateral Sclerosis Therapy” (J Med Chem, 2022)
Calls of active or inactive are those of the source. The calls are words filed in the database; no cut-off is given here.

What was measured:
Tau-tubulin kinase 2 [1] = molecular target: T1, Tau-tubulin kinase 2 (Homo sapiens, UniProt Q6IQ55); assay: Inhibition of TTBK2 (unknown origin)
[2] = Permeability of the compound at pH 7.4 PBS/EtOH buffer (70:30) by PAMPA-BBB assay
SH-SY5Y [3] = assay: Neuroprotective activity against ethacrynic acid-induced neurotoxicity human SH-SY5Y cells assessed as increase in cell viability at 5 uM preincubated for 1 hr followed by ethacrynic acid addition and further incubated for 24 hrs by MTT assay; assay type: functional, cell-based; details: time 25.0 hrs
SH-SY5Y [4] = assay: Neuroprotective activity against ethacrynic acid-induced neurotoxicity human SH-SY5Y cells assessed as decrease in TDP-43 phosphorylation at Ser409 at 5 uM preincubated for 1 hr followed by EA addition and further incubated for 24 hrs by Western blot analysis; assay type: functional, cell-based; details: time 25.0 hrs
SH-SY5Y [5] = assay: Neuroprotective activity against okadaic acid-induced neurotoxicity in human SH-SY5Y cells assessed as reduction in Tau hyperphosphorylation by measuring cell viability at 1 to 5 uM incubated for 24 hrs by MTT assay; assay type: functional, cell-based; details: dose 1-5 µM
[6] = molecular target: Tau tubulin kinase 1 (Rattus norvegicus) (UniProt A0A0G2JTK1); assay: Inhibition of TTBK1 in Wistar rat primary microglia assessed as reduction in LPS-stimulated iNOS induction at 5 to 25 uM measured after 24 hrs by western blot analysis; assay type: cell-based; details: dose 5-25 µM
Sequence of Tau tubulin kinase 1 (Rattus norvegicus) (A0A0G2JTK1 as listed by the source): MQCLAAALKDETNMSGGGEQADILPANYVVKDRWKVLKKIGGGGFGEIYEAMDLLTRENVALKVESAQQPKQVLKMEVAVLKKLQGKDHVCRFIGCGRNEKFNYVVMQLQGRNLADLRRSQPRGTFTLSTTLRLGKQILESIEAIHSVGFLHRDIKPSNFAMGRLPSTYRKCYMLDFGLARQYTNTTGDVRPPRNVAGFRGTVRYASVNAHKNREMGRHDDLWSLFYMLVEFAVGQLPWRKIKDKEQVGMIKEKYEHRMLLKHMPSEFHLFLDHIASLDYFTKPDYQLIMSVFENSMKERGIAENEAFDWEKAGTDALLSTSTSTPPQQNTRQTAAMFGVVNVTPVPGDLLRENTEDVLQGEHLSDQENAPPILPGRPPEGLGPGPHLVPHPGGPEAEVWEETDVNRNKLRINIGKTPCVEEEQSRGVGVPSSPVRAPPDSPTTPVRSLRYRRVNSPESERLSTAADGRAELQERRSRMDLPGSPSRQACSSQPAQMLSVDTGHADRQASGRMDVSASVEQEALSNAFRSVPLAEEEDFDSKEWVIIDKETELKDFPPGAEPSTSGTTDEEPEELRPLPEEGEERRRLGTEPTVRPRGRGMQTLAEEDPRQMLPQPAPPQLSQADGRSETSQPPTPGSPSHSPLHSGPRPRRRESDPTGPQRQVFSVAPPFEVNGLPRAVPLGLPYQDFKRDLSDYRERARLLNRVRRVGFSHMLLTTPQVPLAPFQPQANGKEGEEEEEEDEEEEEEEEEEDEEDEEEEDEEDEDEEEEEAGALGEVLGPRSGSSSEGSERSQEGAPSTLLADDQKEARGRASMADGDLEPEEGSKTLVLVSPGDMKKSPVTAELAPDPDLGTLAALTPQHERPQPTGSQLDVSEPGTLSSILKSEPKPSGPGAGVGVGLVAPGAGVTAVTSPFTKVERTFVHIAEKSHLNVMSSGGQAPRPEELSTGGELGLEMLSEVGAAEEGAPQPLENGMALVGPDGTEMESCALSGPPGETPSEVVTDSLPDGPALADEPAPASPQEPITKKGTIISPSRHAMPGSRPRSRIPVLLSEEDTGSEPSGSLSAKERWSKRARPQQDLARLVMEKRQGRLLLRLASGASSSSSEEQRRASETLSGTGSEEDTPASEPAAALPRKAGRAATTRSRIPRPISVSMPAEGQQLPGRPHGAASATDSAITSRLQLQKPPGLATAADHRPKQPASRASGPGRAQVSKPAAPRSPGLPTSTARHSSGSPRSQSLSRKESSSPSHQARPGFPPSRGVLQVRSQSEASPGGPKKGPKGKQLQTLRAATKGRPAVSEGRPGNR

[7] = Tmax in BALB/c mouse plasma at 5 mg/kg, ip measured for 0.08 to 24 hrs by LC-MS/MS analysis; assay type: ADME, organism-based; details: time 0.08-24 hrs
[8] = Tmax in BALB/c mouse brain at 5 mg/kg, ip measured for 0.08 to 24 hrs by LC-MS/MS analysis; assay type: ADME, organism-based; details: time 0.08-24 hrs
[9] = Tmax in BALB/c mouse plasma at 10 mg/kg, po measured for 0.25 to 24 hrs by LC-MS/MS analysis; assay type: ADME, organism-based; details: time 0.25-24 hrs
[10] = Tmax in BALB/c mouse brain at 10 mg/kg, po measured for 0.25 to 24 hrs by LC-MS/MS analysis; assay type: ADME, organism-based; details: time 0.25-24 hrs
[11] = Cmax in BALB/c mouse plasma at 5 mg/kg, ip measured for 0.08 to 24 hrs by LC-MS/MS analysis; assay type: ADME, organism-based; design: dose 5 mg/kg, time 0.08-24 hrs, route ip
[12] = Cmax in BALB/c mouse brain at 5 mg/kg, ip measured for 0.08 to 24 hrs by LC-MS/MS analysis; assay type: ADME, organism-based; design: dose 5 mg/kg, time upper 24 hrs, time lower 0.08 hrs, route ip
[13] = Cmax in BALB/c mouse plasma at 10 mg/kg, po measured for 0.25 to 24 hrs by LC-MS/MS analysis; assay type: ADME, organism-based; design: time upper 24 hrs, time lower 0.25 hrs, dose 10 mg/kg, route po
[14] = Cmax in BALB/c mouse brain at 10 mg/kg, po measured for 0.25 to 24 hrs by LC-MS/MS analysis; assay type: ADME, organism-based; design: dose 10 mg/kg, time upper 24 hrs, time lower 0.25 hrs, route po
[15] = Half life in BALB/c mouse plasma at 5 mg/kg, ip measured for 0.08 to 24 hrs by LC-MS/MS analysis; assay type: ADME, organism-based; details: time 0.08-24 hrs
[16] = AUClast in BALB/c mouse plasma at 5 mg/kg, ip measured for 0.08 to 24 hrs by LC-MS/MS analysis; assay type: ADME, organism-based; design: dose 5 mg/kg, time 0.08-24 hrs, route ip
[17] = AUClast in BALB/c mouse brain at 5 mg/kg, ip measured for 0.08 to 24 hrs by LC-MS/MS analysis; assay type: ADME, organism-based; design: dose 5 mg/kg, time 0.08-24 hrs, route ip
[18] = AUClast in BALB/c mouse plasma at 10 mg/kg, po measured for 0.25 to 24 hrs by LC-MS/MS analysis; assay type: ADME, organism-based; design: dose 10 mg/kg, time upper 24 hrs, time lower 0.25 hrs, route po
[19] = AUClast in BALB/c mouse brain at 10 mg/kg, po measured for 0.25 to 24 hrs by LC-MS/MS analysis; assay type: ADME, organism-based; design: dose 10 mg/kg, time 0.25-24 hrs, route po
[20] = Half life in BALB/c mouse brain at 5 mg/kg, ip measured for 0.08 to 24 hrs by LC-MS/MS analysis; assay type: ADME, organism-based; details: time 0.08-24 hrs
[21] = Half life in BALB/c mouse plasma at 10 mg/kg, po measured for 0.25 to 24 hrs by LC-MS/MS analysis; assay type: ADME, organism-based; details: time 0.25-24 hrs
[22] = Half life in BALB/c mouse brain at 10 mg/kg, po measured for 0.25 to 24 hrs by LC-MS/MS analysis; assay type: ADME, organism-based; details: time 0.25-24 hrs
[23] = Permeability coefficient in BALB/c mouse assessed as brain to plasma ratio at 5 mg/kg, ip measured for 0.08 to 24 hrs by LC-MS/MS analysis; assay type: ADME, organism-based; details: time 0.08-24 hrs
[24] = Permeability in BALB/c mouse assessed as brain to plasma ratio at 10 mg/kg, po measured for 0.25 to 24 hrs by LC-MS/MS analysis; assay type: ADME, organism-based; details: time 0.25-24 hrs
Mus musculus [25] = assay: Prevention of TDP-43 phosphorylation level in Wild type mouse at lumbar region of spinal cord tissue at 5 mg/kg, ip qd for 30 days by Immunoblot assay; assay type: functional, organism-based; details: time 30.0 day
Mus musculus [26] = assay: Immunomodulatory effect in Prp-hTDP-43 (A315T) transgenic mouse assessed as reduction in iNOS expression in lumbar region of spinal cord at 5 mg/kg, ip qd for 30 days by Western blot analysis; assay type: functional, organism-based; details: time 30.0 day
Mus musculus [27] = assay: Immunomodulatory effect in Prp-hTDP-43 (A315T) transgenic mouse assessed as increase in […] expression in lumbar region of spinal cord at 5 mg/kg, ip qd for 30 days by western blot analysis; assay type: functional, organism-based; details: time 30.0 day
Mus musculus [28] = assay: Immunomodulatory effect in Prp-hTDP-43 (A315T) transgenic mouse assessed as decrease in Iba-1 immunoreactivity in microglial cells at 5 mg/kg, ip qd for 30 days by immunofluorescence analysis; assay type: functional, organism-based; details: time 30.0 day
Mus musculus [29] = assay: Immunomodulatory effect in Prp-hTDP-43 (A315T) transgenic mouse assessed as decrease in GFAP immunoreactivity in astrocytes at 5 mg/kg, ip qd for 30 days by immunofluorescence analysis; assay type: functional, organism-based; details: time 30.0 day
Mus musculus [30] = assay: Protection of neuron degeneration in Prp-hTDP-43 (A315T) transgenic mouse assessed as prevention of reduction in number of motor neurons in ventral horn of spinal cord at 5 mg/kg, ip qd for 30 days by Nissl staining based immunohistochemistry analysis; assay type: functional, organism-based; details: time 30.0 day
Mus musculus [31] = assay: Protection of neuron degeneration in Prp-hTDP-43 (A315T) transgenic mouse assessed as prevention of reduction in number of motor neurons in ventral horn of spinal cord at 5 mg/kg, ip qd for 30 days by choline acetyl transferase staining based immunohistochemistry analysis; assay type: functional, organism-based; details: time 30.0 day
Tau-tubulin kinase 1 [32] = molecular target: T2, Tau-tubulin kinase 1 (Homo sapiens, UniProt Q5TCY1); assay: Inhibition of TTBK1 in sporadic ALS patient derived human lymphoblasts assessed as reduction in TDP-43 phosphorylation levels at 5 to 10 uM treated for 24 hrs by Western blot analysis; assay type: cell-based; details: Lymphoblastoid cell, dose 5-10 µM
T2 sequence (Q5TCY1 whole entry): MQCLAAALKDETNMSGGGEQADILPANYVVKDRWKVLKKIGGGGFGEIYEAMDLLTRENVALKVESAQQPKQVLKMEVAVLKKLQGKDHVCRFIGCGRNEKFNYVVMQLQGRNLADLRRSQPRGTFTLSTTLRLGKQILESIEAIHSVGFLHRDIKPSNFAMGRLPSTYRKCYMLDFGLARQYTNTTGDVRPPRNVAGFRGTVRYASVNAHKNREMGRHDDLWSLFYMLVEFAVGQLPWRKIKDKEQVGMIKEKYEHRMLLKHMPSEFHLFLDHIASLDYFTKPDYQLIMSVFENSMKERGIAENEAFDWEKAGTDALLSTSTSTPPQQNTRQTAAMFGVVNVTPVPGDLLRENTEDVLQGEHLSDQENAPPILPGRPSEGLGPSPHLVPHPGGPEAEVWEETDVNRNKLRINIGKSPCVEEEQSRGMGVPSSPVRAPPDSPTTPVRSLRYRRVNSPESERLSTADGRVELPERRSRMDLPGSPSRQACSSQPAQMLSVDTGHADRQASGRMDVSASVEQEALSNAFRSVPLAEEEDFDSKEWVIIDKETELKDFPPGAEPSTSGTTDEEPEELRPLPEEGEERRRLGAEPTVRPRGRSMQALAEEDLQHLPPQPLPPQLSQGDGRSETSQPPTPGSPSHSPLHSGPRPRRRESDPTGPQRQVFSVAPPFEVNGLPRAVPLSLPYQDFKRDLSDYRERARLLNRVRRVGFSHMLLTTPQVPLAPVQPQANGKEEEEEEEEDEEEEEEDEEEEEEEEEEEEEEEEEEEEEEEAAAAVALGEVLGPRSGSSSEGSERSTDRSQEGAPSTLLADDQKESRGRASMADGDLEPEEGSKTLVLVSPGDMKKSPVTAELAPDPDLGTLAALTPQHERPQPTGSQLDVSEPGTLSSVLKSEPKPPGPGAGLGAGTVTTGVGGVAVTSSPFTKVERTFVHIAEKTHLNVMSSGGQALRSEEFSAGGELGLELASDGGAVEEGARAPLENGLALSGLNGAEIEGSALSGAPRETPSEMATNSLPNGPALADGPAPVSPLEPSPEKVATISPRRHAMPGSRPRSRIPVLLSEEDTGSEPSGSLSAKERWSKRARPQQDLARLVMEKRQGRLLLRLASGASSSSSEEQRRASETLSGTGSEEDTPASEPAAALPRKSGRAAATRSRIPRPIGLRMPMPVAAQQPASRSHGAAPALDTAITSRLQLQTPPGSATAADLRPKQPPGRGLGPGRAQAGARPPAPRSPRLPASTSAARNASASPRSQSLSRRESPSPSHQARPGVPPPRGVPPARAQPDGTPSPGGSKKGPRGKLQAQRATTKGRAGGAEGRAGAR

Tau-tubulin kinase 1 [33] = molecular target: T2, Tau-tubulin kinase 1; assay: Inhibition of TTBK1 in sporadic ALS patient derived human lymphoblasts assessed as reduction in cytosolic TDP-43 levels at 5 to 10 uM treated for 24 hrs by Western blot analysis; assay type: cell-based; details: Lymphoblastoid cell, dose 5-10 µM
Tau-tubulin kinase 1 [34] = molecular target: T2, Tau-tubulin kinase 1; assay: Inhibition of TTBK1 in sporadic ALS patient derived human lymphoblasts assessed as recovery nuclear localization of TDP-43 levels at 5 to 10 uM treated for 24 hrs by Western blot analysis; assay type: cell-based; details: Lymphoblastoid cell, dose 5-10 µM
Tau-tubulin kinase 1 [35] = molecular target: T2, Tau-tubulin kinase 1; assay: Inhibition of recombinant human TTBK1 in ethacrynic acid-treated human SH-SY5Y cells assessed as nuclear localization by measuring reduction in cytosolic TDP-43 accumulation at 5 uM preincubated for 1 hr followed by EA addition and further incubated for 24 hrs by confocal laser scanning microscopy; details: time 25.0 hrs
Tau-tubulin kinase 2 [36] = molecular target: T1, Tau-tubulin kinase 2; details: dose 10.0 µM, time 30.0 min
Tau-tubulin kinase 1 [37] = molecular target: T2, Tau-tubulin kinase 1

T1 sequence (Q6IQ55 whole entry): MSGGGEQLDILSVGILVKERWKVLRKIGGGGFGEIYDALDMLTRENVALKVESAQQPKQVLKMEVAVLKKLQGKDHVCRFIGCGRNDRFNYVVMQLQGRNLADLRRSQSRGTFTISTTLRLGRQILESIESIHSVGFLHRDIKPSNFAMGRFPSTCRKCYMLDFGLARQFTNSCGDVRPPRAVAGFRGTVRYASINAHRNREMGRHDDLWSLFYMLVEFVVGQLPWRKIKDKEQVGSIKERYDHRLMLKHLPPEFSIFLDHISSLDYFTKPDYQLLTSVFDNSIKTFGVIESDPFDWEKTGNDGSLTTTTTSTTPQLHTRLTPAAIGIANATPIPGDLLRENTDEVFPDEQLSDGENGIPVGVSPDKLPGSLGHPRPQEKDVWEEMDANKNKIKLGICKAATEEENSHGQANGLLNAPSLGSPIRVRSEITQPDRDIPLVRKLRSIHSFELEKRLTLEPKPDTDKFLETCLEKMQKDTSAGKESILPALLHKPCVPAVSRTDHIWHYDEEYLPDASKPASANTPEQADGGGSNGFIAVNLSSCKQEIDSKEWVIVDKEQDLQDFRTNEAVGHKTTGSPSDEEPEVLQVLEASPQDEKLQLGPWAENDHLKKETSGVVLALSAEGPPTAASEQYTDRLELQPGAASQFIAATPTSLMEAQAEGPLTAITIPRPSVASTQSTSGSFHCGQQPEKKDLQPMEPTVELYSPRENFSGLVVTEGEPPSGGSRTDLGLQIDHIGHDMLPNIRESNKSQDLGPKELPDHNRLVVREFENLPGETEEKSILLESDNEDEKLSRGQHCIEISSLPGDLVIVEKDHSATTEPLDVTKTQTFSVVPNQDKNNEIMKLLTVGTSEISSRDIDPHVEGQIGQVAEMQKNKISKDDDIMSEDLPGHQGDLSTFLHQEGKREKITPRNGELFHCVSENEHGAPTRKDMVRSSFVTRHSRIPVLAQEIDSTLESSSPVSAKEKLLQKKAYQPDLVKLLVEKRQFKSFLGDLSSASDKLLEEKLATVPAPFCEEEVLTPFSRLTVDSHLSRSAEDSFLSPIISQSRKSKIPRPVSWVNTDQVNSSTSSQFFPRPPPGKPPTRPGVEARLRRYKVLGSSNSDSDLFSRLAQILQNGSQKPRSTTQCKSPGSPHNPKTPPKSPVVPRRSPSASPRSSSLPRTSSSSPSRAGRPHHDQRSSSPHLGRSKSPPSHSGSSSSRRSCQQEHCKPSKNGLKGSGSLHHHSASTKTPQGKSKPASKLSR

Compound `CC1(N)CCN(Cc2ccn3ncnc(Nc4cc(O)cc(Br)c4)c23)CC1` has an IC50 (Tau-tubulin kinase 2 [1]) of 170 nM.
For `Clc1ccc(Oc2ccc(Nc3ncnc4[nH]ccc34)cc2)cc1`, the permeability [2] was “Permeable”, the Activity (SH-SY5Y [3]) was “Active” and the Activity (SH-SY5Y [4]) was “Active”. The Activity (SH-SY5Y [5]) was “Active”, the inhibition [6] was “Active” and the Tmax [7] was 1 h. It also gave a Tmax [8] of 1 h, a Tmax [9] of 2 h and a Tmax [10] of 2 h. For the same compound, the Cmax [11] was 1430 ng/mL, the Cmax [12] was 4170 ng/mL and the Cmax [13] was 2270 ng/mL. The Cmax [14] was 4920 ng/mL, the half-life [15] was 3.75 h and the AUC(0-t) [16] was 5960 ng·h/mL. It also gave an AUC(0-t) [17] of 15700 ng·h/mL, an AUC(0-t) [18] of 18400 ng·h/mL and an AUC(0-t) [19] of 49200 ng·h/mL. For the same compound, the half-life [20] was 3.46 h, the half-life [21] was 3.3 h and the half-life [22] was 3.4 h. The Kp [23] was 2.63, the Kp [24] was 2.67 and the Activity (Mus musculus [25]) was “Active”. The Activity (Mus musculus [26]) was “Active”, the Activity (Mus musculus [27]) was “Active” and the Activity (Mus musculus [28]) was “Active”. For the same compound, the Activity (Mus musculus [29]) was “Active”, the Activity (Mus musculus [30]) was “Active” and the Activity (Mus musculus [31]) was “Active”. For the same compound, the Activity (Tau-tubulin kinase 1 [32]) was “Active”, the Activity (Tau-tubulin kinase 1 [33]) was “Active” and the Activity (Tau-tubulin kinase 1 [34]) was “Active”. The inhibition (Tau-tubulin kinase 1 [35]) was “Active”.
For `Clc1cccc(Oc2ccc(Nc3ncnc4[nH]ccc34)cc2)c1`, the inhibition (Tau-tubulin kinase 2 [36]) was 1%, the permeability [2] was “Permeable” and the Activity (SH-SY5Y [3]) was “Active”. For the same compound, the Activity (SH-SY5Y [4]) was “Active”, the Activity (SH-SY5Y [5]) was “Active” and the Activity (Tau-tubulin kinase 1 [32]) was “Active”. The Activity (Tau-tubulin kinase 1 [33]) was “Active” and the Activity (Tau-tubulin kinase 1 [34]) was “Active”.
In the case of `CC[C@@](C)(O)C#Cc1cc2c(ccn2-c2cc(OC)nc(N)n2)cn1`, the IC50 (Tau-tubulin kinase 2 [1]) is reported as 2.7 nM and the IC50 (Tau-tubulin kinase 1 [37]) is reported as 1.6 nM.
